Measurements: patent publication US6740304B2, “Receptor binding conjugates” (priority 1999, dated 2004)

Biological target: T1, folate binding protein (FBP) (Bos taurus, UniProt P02702)
T1 construct: purchased Sigma
Experiment: Binding assay on immobilised folate binding protein (Scatchard type plot)
Settings: Scatchard type plot (FIG. 1), for the conjugate assuming at least one binding-reactive folic acid per HIgG
From the text: Immobilised folate binding protein (FBP) was used to investigate the binding characteristics of the folic acid conjugates. FBP (Sigma) with a binding capacity of […] folic acid per milligram protein was immobilised on high protein binding 96 well EIA/RIA assay plates (Costar Corning Inc. N.Y., USA)
FBP was labelled with ^125I by the Iodogen method and the labelled protein was isolated by eluting the reaction mixture on a PD-10 column. Purified ^125I-FBP in concentrations ranging form […] in PBS were added in to the 96 well assay plates and incubated on a rotating rack at 4° C. overnight. […] The immobilised quantities of the various concentrations of quadruplicates of ^125I FBP was determined as the ratio of L3/L1+L2 after measuring the radioactivity of the respective samples by liquid scintillation counting.
Wells were incubated with a solution of FBP in PBS and washed three times with PBS after removal of the incubation mixture. […] The specifically bound fraction of folic acid was determined by a similar method as described for ^125I-FBP, correcting for the faction of ^3H-FA retained in the wells that were preincubated with folic acid. […]
The specifically bound ^3H-FA was plotted against the concentration of ^3H-FA in a Scatchard type plot (FIG. 1). […] The following values were determined from the binding assay: […]

T1 sequence (P02702 20-234): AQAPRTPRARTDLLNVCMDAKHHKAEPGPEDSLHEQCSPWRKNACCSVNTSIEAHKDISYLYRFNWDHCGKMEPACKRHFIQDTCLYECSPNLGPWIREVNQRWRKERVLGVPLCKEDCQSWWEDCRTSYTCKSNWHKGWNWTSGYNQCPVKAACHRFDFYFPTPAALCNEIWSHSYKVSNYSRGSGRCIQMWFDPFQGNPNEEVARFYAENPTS

Ka: 2×10^8
Substance: ^3H-Folic acid [^3H-FA]
